The results in this text go back to ChEMBL document CHEMBL5214988, “Design, Synthesis, and Biological Evaluation of 5-Formyl-pyrrolo[3,2-b]pyridine-3-carboxamides as New Selective, Potent, and Reversible-Covalent FGFR4 Inhibitors” (J Med Chem, 2022).

Series [1] can be described thus: Half life in ICR mouse at 2 mg/kg, iv measured upto 24 hrs by LC-MS/MS analysis. To be noted: in vivo. The class given is ADME, organism-based.
Series [2] can be described thus: Half life in ICR mouse at 10 mg/kg, po measured upto 24 hrs by LC-MS/MS analysis. Type of series: ADME, organism-based. To be noted: in vivo.
Series [3] can be described thus: Tmax in ICR mouse at 2 mg/kg, iv measured upto 24 hrs by LC-MS/MS analysis. Type of series: ADME, organism-based. To be noted: in vivo.
Series [4] is described as follows: Tmax in ICR mouse at 10 mg/kg, po measured upto 24 hrs by LC-MS/MS analysis. Type of series: ADME, organism-based. To be noted: in vivo.
Series [5] in a line: Cmax in ICR mouse at 2 mg/kg, iv measured upto 24 hrs by LC-MS/MS analysis. The class given is ADME, organism-based. Further details: time < 24 hrs, dose 2 mg/kg, route iv. To be noted: in vivo.
The nature of series [6]: Cmax in ICR mouse at 10 mg/kg, po measured upto 24 hrs by LC-MS/MS analysis. The class given is ADME, organism-based. Further details: dose 10 mg/kg, time < 24 hrs, route po. To be noted: in vivo.
A short description of series [7]: AUC (0 to t) in ICR mouse at 2 mg/kg, iv measured upto 24 hrs by LC-MS/MS analysis. The class given is ADME, organism-based. Further details: time < 24 hrs, dose 2 mg/kg, route iv. To be noted: in vivo.
A short description of series [8]: AUC (0 to t) in ICR mouse at 10 mg/kg, po measured upto 24 hrs by LC-MS/MS analysis. The class given is ADME, organism-based. To be noted: in vivo. Further details: dose 10 mg/kg, time < 24 hrs, route po.
The nature of series [9]: AUC (0 to infinity) in ICR mouse at 2 mg/kg, iv measured upto 24 hrs by LC-MS/MS analysis. The class given is ADME, organism-based. Set-up: time < 24 hrs, dose 2 mg/kg, route iv. To be noted: in vivo.
Series [10] is described as follows: AUC (0 to infinity) in ICR mouse at 10 mg/kg, po measured upto 24 hrs by LC-MS/MS analysis. The class given is ADME, organism-based. Further details: time < 24 hrs, dose 10 mg/kg, route po. To be noted: in vivo.
Series [11] in a line: MRT (0 to t) in ICR mouse at 2 mg/kg, iv measured upto 24 hrs by LC-MS/MS analysis. The class given is ADME, organism-based. To be noted: in vivo.
Series [12] is described as follows: MRT (0 to t) in ICR mouse at 10 mg/kg, po measured upto 24 hrs by LC-MS/MS analysis. The class given is ADME, organism-based. To be noted: in vivo.
A short description of series [13]: Observed clearance in ICR mouse at 2 mg/kg, iv measured upto 24 hrs by LC-MS/MS analysis. To be noted: in vivo. The class given is ADME, organism-based.
The nature of series [14]: Oral bioavailability in ICR mouse at 10 mg/kg measured upto 24 hrs by LC-MS/MS analysis. The class given is ADME, organism-based. To be noted: in vivo.
Series [15] in a line: Metabolic stability in mouse liver microsomes assessed as half life incubated upto 60 mins in presence of NADPH by LC-MS/MS analysis. The class given is ADME, Microsome. To be noted: 1 h. (Liver microsomes are vesicles of endoplasmic reticulum, rich in cytochrome P450 enzymes.)

Each structure is given as a SMILES string.

Usually half-life stands for the time in which the quantity being followed falls by half. Read a high half-life as slow loss. Usually Tmax stands for the time from dosing to the highest level. Broadly, the Cmax is the highest concentration seen after dosing. By AUC(0-t) is commonly meant the area under the concentration-time curve up to a stated or last time point. Read a high AUC(0-t) as more exposure. A word on the AUC(0-inf): it is the area under the concentration-time curve extrapolated to infinity. As a reminder, the MRT last is the average time that molecules of a dose stay in the body. What is called clearance is the volume of plasma or blood freed of the substance per unit of time. Low values mean a low capacity for elimination, high ones a high capacity for elimination. The bioavailability is the share of a dose that reaches the circulation, judged against a reference dose that is usually intravenous. A low value points to little systemic uptake. With `C[C@@H](Oc1cc(NC(=O)c2cn(CCN3CCOCC3)c3cc(Br)c(C=O)nc23)ncc1C#N)c1c(Cl)cncc1Cl`, the half-life in [1] is 45.6 min; in series [2], 196 min. Also, the Tmax in series [3] was found to be 4.98 min; in [4], 23.4 min. Besides, the peak concentration (Cmax) in series [5] amounted to 1640 ng/mL; in series [6], 13.4 ng/mL. For the same molecule, the AUC(0-t) at 24 h came out at 702 ng·h/mL in [7] and 29.5 ng·h/mL in [8]. Besides, the AUC(0-inf) was 704 ng·h/mL in series [9] and 38.6 ng·h/mL in series [10]. Also, the MRT last at 24 h in [11] is 29.4 min; in series [12] it was 104 min. For the same molecule, in [13], the clearance was 49.7 mL/min/kg. In addition, the bioavailability in series [14] came to 1.1%. For the same molecule, in series [15], the t1/2 came to 696 min.
